Test system: CB-1 receptor
Experiment: CB-1 receptor binding assay ([3H]SR141716A displacement)
Conditions: inhibition of [3H]SR141716A binding; rat or human protocol not specified
Experimental: The following assays were designed to detect compounds that inhibit the binding of [^3H] SR141716A (selective radiolabeled CB-1 ligand) and [^3H] 5-(1,1-dimethylheptyl)-2-[5-hydroxy-2-(3-hydroxypropyl)-cyclohexyl]-phenol; radiolabeled CB-1/CB-2 ligand) to their respective receptors.
PelFreeze brains (available from Pel Freeze Biologicals, Rogers, Arkansas) were cut up and placed in tissue preparation buffer (5 mM Tris HCl, pH=7.4 and 2 mM EDTA), polytroned at high speed and kept on ice for 15 minutes. The homogenate was then spun at 1,000×g for 5 minutes at 4° C. The supernatant was recovered and centrifuged at 100,000×G for 1 hour at 4° C. The pellet was then re-suspended in 25 ml of TME ([…], pH=7.4, 5 mM MgCl2, and 1 mM EDTA) per brain used. A protein assay was performed and 200 μl of tissue totaling 20 μg was added to the assay.
The test compounds were diluted in drug buffer (0.5% BSA, 10% DMSO and TME) and then 25 μl were added to a deep well polypropylene plate. [^3H] […] In the morning the filters were counted on a Wallac Betaplate™ counter (available from PerkinElmer Life Sciences™, Boston, Mass.). […]
The test compounds were diluted in drug buffer (0.5% BSA, 10% DMSO and TME) and then 25 μl were added to a deep well polypropylene plate. […] In the morning the filters were counted on a Wallac Betaplate™ counter (available from PerkinElmer Life Sciences™, Boston, Mass.).

Row | CB-1 binding activities | Compound
1 | 4 nM | CC(C)N1Cc2nn(-c3ccccc3Cl)c(-c3ccc(C#N)cc3)c2C1=O [Example 1A-2, 2-(2-chloro-phenyl)-5-isopropyl-3-(4-cyano-phenyl)-5,6-dihydro-2H-pyrrolo[3,4-c]pyrazol-4-one]
2 | 2 nM | CC(C)N1Cc2nn(-c3ccccc3Cl)c(-c3ccc(Cl)cc3)c2C1=O [Example 1A-3, 2-(2-chloro-phenyl)-5-isopropyl-3-(4-chloro-phenyl)-5,6-dihydro-2H-pyrrolo[3,4-c]pyrazol-4-one]

Source: patent US20040214856A1, “Cannabinoid receptor ligands and uses thereof” (Pfizer Inc, priority 2003, published 2004)
